# Source: patent US20050037923A1, “Herbicidal mixture based on 7-pyrazolybenzoxazoles” (BASF Aktiengesellschaft, priority 2001, published 2005)
# Assays:
# [1] = tested on: AVEFA; assay: Greenhouse test, post-emergence herbicidal action; type: in vivo, wild oat
# Description: (§1) For the post-emergence treatment, the test plants were first grown to a height of 3 to 20 cm, depending on the plant habit, and only then treated. Here, the herbicidal compositions were suspended or emulsified in water as distribution medium and sprayed using finely distributing nozzles.
# (§2) The respective components A and B and/or C were formulated as 10% by weight strength emulsion concentrate and introduced to the spray liquor with the amount of solvent system used for applying the active compound. In the examples, the solvent used was water.
# (§3) The test period extended over 21 days. During this time, the plants were tended, and their response to the treatments with active compound was evaluated.
# (§4) The evaluation for the damage caused by the chemical compositions was carried out using a scale from 0 to 100%, compared to the untreated control plants. Here, 0 means no damage and 100 means complete destruction of the plants.
# (§5) In the examples below, the value E which is to be expected if the activity of the individual active compounds is just additive was calculated using the method of S. R. Colby (1967) “Calculating synergistic and antagonistic responses of herbicide combinations”, Weeds 15, p. 22 ff. E=X+Y—(X·Y/100) where • X=effect in percent using active compound A at an application rate a; • Y=effect in percent using active compound B at an application rate b; • E=expected effect (in %) of A+B at application rates a+b.
# (§6) The plants used in the greenhouse experiments were of the following species: […]
# [2] = tested on: BIDPI; assay: Greenhouse test, post-emergence herbicidal action; type: in vivo, hairy beggarticks
# Description: as §1, §2, §3, §4, §5, §6
# [3] = tested on: BRAPL; assay: Greenhouse test, post-emergence herbicidal action; type: in vivo, alexandergrass
# Description: as §1, §2, §3, §4, §5, §6
# [4] = tested on: ECHCG; assay: Greenhouse test, post-emergence herbicidal action; type: in vivo, barnyardgrass
# Description: as §1, §2, §3, §4, §5, §6
# [5] = tested on: GALAP; assay: Greenhouse test, post-emergence herbicidal action; type: in vivo, catchweed bedstraw; conditions: 21 days
# Description: as §1, §2, §3, §4, §5, §6
# [6] = tested on: POLPE; assay: Greenhouse test, post-emergence herbicidal action; type: in vivo, ladysthumb
# Description: as §1, §2, §3, §4, §5, §6
# [7] = tested on: SETFA; assay: Greenhouse test, post-emergence herbicidal action; type: in vivo, giant foxtail; conditions: 21 days
# Description: as §1, §2, §3, §4, §5, §6
# [8] = tested on: SETVI; assay: Greenhouse test, post-emergence herbicidal action; type: in vivo, green foxtail
# Description: as §1, §2, §3, §4, §5, §6
# [9] = tested on: VERSS; assay: Greenhouse test, post-emergence herbicidal action; type: in vivo, speadwell
# Description: as §1, §2, §3, §4, §5, §6
# [10] = tested on: ABUTH; assay: Greenhouse test, pre-emergence herbicidal action; type: in vivo, velvet leaf
# Description: (§7) For the pre-emergence treatment, the test plants were sown is pots 1-2 days later, i.e. prior to germination, the pots were sprayed with the finely distributed herbicidal compositions, which had been suspended in water.
# as §2, §3, §4, §5, §6
# [11] = tested on: BIDPI; assay: Greenhouse test, pre-emergence herbicidal action; type: in vivo, hairy beggarticks
# Description: as §7, §2, §3, §4, §5, §6
# [12] = tested on: ECHCG; assay: Greenhouse test, pre-emergence herbicidal action; type: in vivo, barnyardgrass
# Description: as §7, §2, §3, §4, §5, §6
# [13] = tested on: SORHA; assay: Greenhouse test, pre-emergence herbicidal action; type: in vivo, johnsongrass
# Description: as §7, §2, §3, §4, §5, §6
# [14] = tested on: crop plants; assay: Safener action, pre-emergence, damage to crop plants; type: in vivo; conditions: 21 days
# Description: as §7, §2, §4
# As in the example above, test plants were grown, treated with the mixture according to the invention by the Pre-emergence method and, after a test period of 21 days, evaluated using a scale from 0 to 100% damage. The test plants used were crop plants.
# A safener action is present if the damage to the crop plant caused by using a mixture according to the invention which comprises a safener C) is less than the damage caused when active compound A or active compounds A and B are used without safener.
# [15] = tested on: ABUTH; assay: Greenhouse test, post-emergence herbicidal action; type: in vivo, velvet leaf; conditions: 21 days
# Description: as §1, §2, §3, §4, §5, §6
# [16] = tested on: COMBE; assay: Greenhouse test, post-emergence herbicidal action; type: in vivo, tropical spiderwort; conditions: 21 days
# Description: as §1, §2, §3, §4, §5, §6
# [17] = tested on: MATIN; assay: Greenhouse test, post-emergence herbicidal action; type: in vivo, false chamomille
# Description: as §1, §2, §3, §4, §5, §6
# [18] = tested on: POAAN; assay: Greenhouse test, post-emergence herbicidal action; type: in vivo, annual bluegrass
# Description: as §1, §2, §3, §4, §5, §6
# [19] = tested on: CHEAL; assay: Greenhouse test, pre-emergence herbicidal action; type: in vivo, lambsquarters
# Description: as §7, §2, §3, §4, §5, §6
# [20] = tested on: THLAR; assay: Greenhouse test, pre-emergence herbicidal action; type: in vivo, fanweed
# Description: as §7, §2, §3, §4, §5, §6
# [21] = application rate 1.95 g/ha (Example 28)
# [22] = application rate 1.95 g/ha, 21 days
# [23] = application rate 3.91 g/ha (Example 28)
# [24] = application rate 3.91 g/ha, 21 days
# [25] = application rate 0.98 g/ha (Example 24)
# [26] = application rate 1.95 g/ha (Example 24)
# [27] = application rate 62.5 g/ha (Example 23)
structure (smiles),measurement,setting,value
CCc1nc2c(Cl)cc(Cl)c(-c3nn(C)c(OC(F)F)c3Br)c2o1 [I.12],"Herbicidal action against AVEFA, Found",[1]; application rate 1.95 g/ha,40%
same,"Herbicidal action against AVEFA, Found",[1]; application rate 1.95 g/ha (Example 16),20%
same,"Herbicidal action against AVEFA, Found",[1]; [21],20%
same,"Herbicidal action against AVEFA, Found",[1]; [22],20%
same,"Herbicidal action against AVEFA, Found",[1]; application rate 3.91 g/ha,40%
same,"Herbicidal action against AVEFA, Found",[1]; application rate 3.91 g/ha (Example 16),30%
same,"Herbicidal action against AVEFA, Found",[1]; [23],20%
same,"Herbicidal action against AVEFA, Found",[1]; [24],30%
same,"Herbicidal action against BIDPI, Found",[2]; application rate 1.95 g/ha,65%
same,"Herbicidal action against BIDPI, Found",[2]; application rate 3.91 g/ha,65%
same,"Herbicidal action against BRAPL, Found",[3]; [21],50%
same,"Herbicidal action against BRAPL, Found",[3]; application rate 3.91 g/ha (Example 18),60%
same,"Herbicidal action against BRAPL, Found",[3]; [23],50%
same,"Herbicidal action against BRAPL, Found",[3]; application rate 7.81 g/ha (Example 18),75%
same,"Herbicidal action against ECHCG, Found",[4]; application rate 0.49 g/ha,0%
same,"Herbicidal action against ECHCG, Found",[4]; application rate 0.98 g/ha,0%
same,"Herbicidal action against ECHCG, Found",[4]; [25],0%
same,"Herbicidal action against ECHCG, Found",[4]; [26],0%
same,"Herbicidal action against ECHCG, Found",[4]; [22],50%
same,"Herbicidal action against ECHCG, Found",[4]; [24],50%
same,"Herbicidal action against GALAP, Found",[5]; application rate 0.49 g/ha,15%
same,"Herbicidal action against GALAP, Found",[5]; application rate 0.98 g/ha,15%
same,"Herbicidal action against POLPE, Found",[6]; application rate 0.49 g/ha,15%
same,"Herbicidal action against POLPE, Found",[6]; application rate 0.98 g/ha,15%
same,"Herbicidal action against POLPE, Found",[6]; [25],15%
same,"Herbicidal action against POLPE, Found",[6]; [26],60%
same,"Herbicidal action against POLPE, Found",[6]; [22],60%
same,"Herbicidal action against POLPE, Found",[6]; [24],65%
same,"Herbicidal action against SETFA, Found",[7]; application rate 1.95 g/ha,50%
same,"Herbicidal action against SETFA, Found",[7]; application rate 3.91 g/ha,65%
same,"Herbicidal action against SETVI, Found",[8]; application rate 0.98 g/ha,40%
same,"Herbicidal action against SETVI, Found",[8]; application rate 1.95 g/ha,50%
same,"Herbicidal action against VERSS, Found",[9]; application rate 0.49 g/ha,0%
same,"Herbicidal action against VERSS, Found",[9]; application rate 0.98 g/ha,50%
same,"Herbicidal action against ABUTH, Found",[10]; application rate 62.5 g/ha,60%
same,"Herbicidal action against ABUTH, Found",[10]; application rate 125 g/ha,60%
same,"Herbicidal action against BIDPI, Found",[11]; application rate 62.5 g/ha,30%
same,"Herbicidal action against BIDPI, Found",[11]; application rate 125 g/ha,30%
same,"Herbicidal action against ECHCG, Found",[12]; application rate 31.25 g/ha,0%
same,"Herbicidal action against ECHCG, Found",[12]; [27],0%
same,"Herbicidal action against SORHA, Found",[13]; application rate 31.25 g/ha,30%
same,"Herbicidal action against SORHA, Found",[13]; application rate 62.5 g/ha,40%
same,"Damage to the crop plant corn (ZEAMX), cultivar Magister",[14]; application rate 62.5 g/ha,38%
same,"Damage to the crop plant corn (ZEAMX), cultivar P3751",[14]; application rate 62.5 g/ha,28%
same,"Damage to the crop plant corn (ZEAMX), cultivar Magister",[14]; application rate 125 g/ha,35%
same,"Damage to the crop plant corn (ZEAMX), cultivar P3751",[14]; application rate 125 g/ha,35%
CCc1nc2c(Cl)cc(F)c(-c3nn(C)c(OC(F)F)c3Cl)c2o1 [I.9],"Herbicidal action against ABUTH, Found",[15]; application rate 0.49 g/ha,0%
same,"Herbicidal action against ABUTH, Found",[15]; application rate 0.98 g/ha,70%
same,"Herbicidal action against AVEFA, Found",[1]; application rate 1.95 g/ha (Example 15),10%
same,"Herbicidal action against AVEFA, Found",[1]; [22],10%
same,"Herbicidal action against AVEFA, Found",[1]; application rate 3.91 g/ha (Example 15),20%
same,"Herbicidal action against BIDPI, Found",[2]; [22],0%
same,"Herbicidal action against BIDPI, Found",[2]; [24],40%
same,"Herbicidal action against BRAPL, Found",[3]; application rate 3.91 g/ha (Example 17),65%
same,"Herbicidal action against BRAPL, Found",[3]; application rate 7.81 g/ha (Example 17),85%
same,"Herbicidal action against COMBE, Found",[16]; application rate 0.98 g/ha,10%
same,"Herbicidal action against COMBE, Found",[16]; application rate 1.95 g/ha,10%
same,"Herbicidal action against MATIN, Found",[17]; application rate 1.95 g/ha,20%
same,"Herbicidal action against MATIN, Found",[17]; application rate 3.91 g/ha,20%
same,"Herbicidal action against POAAN, Found",[18]; application rate 1.95 g/ha,10%
same,"Herbicidal action against POAAN, Found",[18]; application rate 3.91 g/ha,10%
same,"Herbicidal action against POLPE, Found","[6]; application rate 0.49 g/ha, 21 days",5%
same,"Herbicidal action against POLPE, Found","[6]; application rate 0.98 g/ha, 21 days",10%
same,"Herbicidal action against POLPE, Found",[6]; [22],50%
same,"Herbicidal action against SETFA, Found",[7]; application rate 1.95 g/ha,45%
same,"Herbicidal action against CHEAL, Found",[19]; application rate 7.81 g/ha,75%
same,"Herbicidal action against CHEAL, Found",[19]; application rate 15.63 g/ha,75%
same,"Herbicidal action against ECHCG, Found",[12]; application rate 7.81 g/ha,10%
same,"Herbicidal action against ECHCG, Found",[12]; application rate 15.63 g/ha,35%
same,"Herbicidal action against THLAR, Found",[20]; application rate 15.63 g/ha,80%
same,"Herbicidal action against THLAR, Found",[20]; application rate 31.25 g/ha,80%
COC[C@H](C)N(C(=O)CCl)c1c(C)csc1C [dimethenamide-P],"Herbicidal action against CHEAL, Found",[19]; application rate 62.5 g/ha,10%
same,"Herbicidal action against ECHCG, Found",[12]; application rate 62.5 g/ha (Example 22),85%
same,"Herbicidal action against ECHCG, Found",[12]; [27],85%
same,"Herbicidal action against SORHA, Found",[13]; application rate 62.5 g/ha,50%
